Assays:
[1] = system: CNS (XF498) cancer cell line; conditions: cited from earlier work
[2] = system: colon (HCT15) cancer cell line; conditions: cited from earlier work
[3] = system: ovarian (SK-OV-3) cancer cell line; conditions: cited from earlier work
[4] = system: naïve CD4+ CD25− T cells; test: Conversion of CD4+CD25− T cells into CD4+FoxP3+ Tregs in vitro; format: cell-based
Description: To assess the effect of psammaplin A on the generation of Tregs, naïve CD4+ CD25− T cells were cultured with mitomycin C treated APCs plus IL-2, TGFβ and anti-CD3 in the presence or absence of psammaplin A and numbers of CD4^+ FoxP3^+ Tregs were determined by FACS after 72 h. The RNA was isolated from cell lysate, and reverse transcribed to cDNA for RT-qPCR analysis using Taqman primer probes. Expression of genes encoding Foxp3 was normalized to HPRT expression and was calibrated relative to vehicle group.
The procedure under “Conversion of CD4+CD25− T cells into CD4+FoxP3+ Tregs in vitro” was followed. The frequencies of CD4+FoxP3+ Tregs were determined by FACS after 72 h (FIG. 3A and 3B).

[5] = system: collagen-induced arthritis mouse model; test: Treatment of collagen-induced arthritis in vivo; conditions: DBA/1 mice, 10 mg/kg for 4 days from arthritis onset, scores monitored 10 days, vs vehicle
Description: DBA/1 mice were immunized with bovine type II collagen emulsified in complete Freund's adjuvant. The mice were treated with psammaplin A (10 mg/kg) for 4 days, starting on the day of arthritis onset. Treatment was then stopped. Negative controls received vehicle alone. Clinical scores were monitored for 10 days following onset of arthritis. A clinical scoring system was used as follows. Arthritis severity was scored by an experienced non-blinded investigator as follows: 0=normal, 1=slight swelling and/or erythema, 2=pronounced swelling, 3=ankylosis. All four limbs were scored, giving a maximum possible score of 12 per animal.
The procedure under “Treatment of collagen-induced arthritis in vivo” was followed.
Disease severity was evaluated daily and the mean clinical score of each treatment group was determined. The data points on the graph in FIG. 2 are the mean±SEM of the mice in each treatment.

[6] = system: human lung (A549) cancer cell line; conditions: cited from earlier work
[7] = target: hepatitis C virus NS3 helicase (Hepatitis C virus genotype 1a, UniProt P27958); conditions: dose-response relationship, cited from earlier work
[8] = system: methicillin-resistant Staphylococcus aureus (MRSA); conditions: gram-positive bacteria, in particular MRSA; cited from earlier work
[9] = system: skin (SK-MEL-2) cancer cell line; conditions: cited from earlier work
[10] = system: IDO1 expression in THP-1 cells; test: Induction of IDO1 in THP-1 cells (RT-qPCR); format: cell-based, human; conditions: for IDO1 expression (fold change): 96 hours, vs DMSO control
Description: THP-1 cells were harvested from appropriate number of T75 flasks. Cells were counted in a Bürker chamber, stained with 0.4% Trypan Blue. The appropriate number of cells for each experiment were transferred to a new tube and centrifuged at 1200 rpm, 5 min at room temperature (RT). The supernatant was discarded and fresh RPMI with 5% FBS was added to get a cell concentration of 2×10^5 cells/mL. The compound was added to the five separate wells in 6-well plates such that five different final concentrations were obtained after adding the cells. A control was added to one well in the 6-well plate to which cells were added. 1×10^6 cells per well were seeded out to achieve a total volume of 5 mL per well. The cells were incubated at 37° C. in 5% CO2 for 96 hours. After 96 hours the assay was stopped and the cells were lysed for the isolation of RNA.
Total RNA was extracted from THP-1 cells using the RNA RNeasy Mini extraction kit (Qiagen), according to the manufacturer's instructions. A SuperScript® VILO™ RT-kit (Thermo Fisher) was used to reverse transcribe 1 μg of total RNA to cDNA and qPCR was performed. The primers used for amplification of the human IDO1 gene were 5″-[…]-3″ (forward; SEQ ID No. 1) and 5″-[…]-3″ (reverse; SEQ ID No. 2). The primers used for amplification of the endogenous reference gene for human HPRT1 were 5″-[…]-3″ (forward; SEQ ID No. 3) and 5″-[…]-3″ (reverse; SEQ ID No. 4). In brief, RT-qPCR was performed in 20 μl reaction, consisting 10 μl PowerUp SYBR Green Master Mix, 0.5 μM of each primer, 4 μl diluted cDNA for amplification of IDO1 and 1.5 μl diluted cDNA for amplification of HPRT1. An iCycler iQ real-time detection system (Stratagene, Mx3000P, La Jolla, Calif., USA) with the following thermal profile: UDG incubation at 50° C. for 2 min, then denaturation at 95° C. for 5 min, followed by 45 cycles at 94° C. for 15 s, 58° C. for 30 s, and 60° C. for 30 s, was used to perform thermocycling and real-time detection of PCR products. After amplification a melting curve analysis was performed. The RT-qPCR experiments were always run in triplicate. IDO1 was normalised to the geometric means of two HPRT1 reference gene, using the ΔCt method. Within-group comparisons were normalized to one control sample, using the ΔΔCt method.
The procedure under “Induction of IDO1 in THP-1 cells” was followed such that the final concentrations set out in Table 1 were obtained.
Following RNA extraction and quantification of gene expression by RT-qPRC, as described above, induction of IDO1 gene expression using Samples 1 to 6 was investigated.

Sequence of hepatitis C virus NS3 helicase (P27958 1027-1657): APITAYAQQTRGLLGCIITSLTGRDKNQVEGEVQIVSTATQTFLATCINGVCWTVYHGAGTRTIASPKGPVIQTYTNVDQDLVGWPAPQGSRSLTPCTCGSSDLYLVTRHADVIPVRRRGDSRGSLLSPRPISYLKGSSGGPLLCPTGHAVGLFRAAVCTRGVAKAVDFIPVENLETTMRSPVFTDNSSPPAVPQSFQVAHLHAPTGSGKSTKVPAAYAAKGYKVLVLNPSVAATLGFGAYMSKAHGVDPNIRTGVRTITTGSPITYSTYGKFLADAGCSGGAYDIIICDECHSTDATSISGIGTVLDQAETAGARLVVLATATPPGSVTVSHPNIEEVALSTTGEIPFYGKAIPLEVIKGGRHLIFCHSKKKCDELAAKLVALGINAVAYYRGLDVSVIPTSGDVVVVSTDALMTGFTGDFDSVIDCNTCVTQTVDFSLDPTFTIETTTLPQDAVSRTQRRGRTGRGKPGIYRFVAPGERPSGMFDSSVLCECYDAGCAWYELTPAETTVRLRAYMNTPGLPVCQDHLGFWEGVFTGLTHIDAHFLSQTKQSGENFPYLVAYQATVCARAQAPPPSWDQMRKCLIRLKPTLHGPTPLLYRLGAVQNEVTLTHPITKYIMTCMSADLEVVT

Compound: O=C(NCCSSCCNC(=O)/C(Cc1ccc(O)c(Br)c1)=N/O)/C(Cc1ccc(O)c(Br)c1)=N/O [psammaplin A]
- cytotoxicity [1]: significant cytotoxicity
- cytotoxicity [2]: significant cytotoxicity
- cytotoxicity [3]: significant cytotoxicity
- frequencies of CD4+FoxP3+ Tregs (FACS) ([4]; co-culture with mitomycin C treated APCs plus IL-2, TGFβ and anti-CD3, 72 h, vs control (nil)): increased in a dose-dependent manner
- relative expression of the Foxp3 gene (RT-qPCR) ([4]; normalized to HPRT, relative to vehicle group (nil)): increased in a dose-dependent manner
- disease severity (mean clinical score) [5]: successful in reducing disease severity
- cytotoxicity [6]: significant cytotoxicity
- NS3 ATPase activity inhibition [7]: inhibits NS3 helicase and ATPase activities
- NS3 helicase activity inhibition ([7]; non-competitive): inhibits NS3 helicase
- antimicrobial effect [8]: antimicrobial effect
- cytotoxicity [9]: significant cytotoxicity
- IDO1 expression (fold change) ([10]; 0.05 micromolar): 0.9 fold change
- IDO1 expression (fold change) ([10]; 0.1 micromolar): 0.6 fold change
- IDO1 expression (fold change) ([10]; 1 micromolar): 0.9 fold change
- IDO1 expression (fold change) ([10]; 3 micromolar): 4.5 fold change
- IDO1 expression (fold change) ([10]; 5 micromolar): 20 fold change
- increase of IDO1 gene expression (maximum) ([10]; psammaplin A alone, highest level at 5 micromolar): up to 20 fold

Source: patent publication US20210299069A1, “PSAMMAPLIN A FOR MODULATING IDO EXPRESSION” (IDOGEN AB, priority 2016, published 2021)
